Data taken from patent US20220186286A1, “FLUORESCENT PROBE FOR DETECTING ACTIVATION OF SIALIDASE” (The University of Tokyo, priority 2019, published 2022).

Columns and labels:
[1] = system: neuraminidase (from Arthrobacter ureafaciens); test: dynamic (kinetic) parameters of the probes as neuraminidase substrates; assay type: biochemical; details: for Km / Vmax / kcat: 50 mM NaOAc, 2 mM CaCl2, 100 μg/mL BSA buffer (pH 6.5), 60 minutes; for kcat/Km relative to that of 4-MUNANA: fold larger than 4-MUNANA
Procedure: The probe was dissolved in 200 μL (total volume) of 50 mM NaOAc, 2 mM CaCl2, 100 μg/mL BSA buffer (pH 6.5) at various concentrations. A neuraminidase (from Arthrobacter ureafaciens, […]) was added, and the increase in fluorescence for 60 minutes was evaluated. Concerning the dynamic parameter Vmax and Km, the corrected data were calculated using the following formula.
V0 is the steady state speed of the probe substrate rotation by the neuraminidase, Vmax is the maximum speed (mM/min), X is the probe concentration in the reaction mixture (mM), and Km is the Michaelis constant (mM) at which the reaction speed is half of Vmax. Formula 1 was fitted to the data using KaleidaGraph 4.5.2 software (Synergy Software).
The dynamic parameters of HMRef-Neu5Ac and HMRef-S-Neu5Ac were determined in accordance with the method previously described by Govorkova et al., and compared to that of a commercial sialidase substrate, 4-MUNANA.

[2] = photochemical properties (absorption, emission, quantum yield, pKa, pKcycl); assay type: physicochemical; details: for pKcycl: spiro ring formation
Procedure: UV-vis spectra were obtained with a spectrophotometer, Shimadzu UV-2450.
Fluorescence spectra were obtained with Hitachi F-7000. The absolute fluorescence quantum efficiency was measured using an absolute PL quantum yield measuring apparatus, Quantuarus-QY (Hamamatsu Photonics K. K.). The probe was dissolved in dimethyl sulfoxide (DMSO, grade for fluorometry, DOJINDO LABORATORIES) to obtain a stock solution.
(§1) The optical property of the probe was acquired in a 0.2 M sodium phosphate buffer, a 100 mM NaOAc, 2 mM CaCl2, pH 6.5 buffer, or a 50 mM NaOAc, 2 mM CaCl2, 100 μg/mL BSA, pH 7.4 buffer. For an in vitro enzymatic reaction, the probe DMSO stock solution was diluted with a 100 mM NaOAc, 2 mM CaCl2, pH 7.4 buffer so that the final concentration was 1 μM. First, the fluorescence of the solution before adding a sialidase was measured every second (excitation wavelength: 490 nm, emission wavelength: 520 nm). Then, a neuraminidase from Arthrobacter ureafaciens (0.01 U) was used for this assay.

[3] = system: neuraminidase from Arthrobacter ureafaciens; test: in vitro enzymatic reaction with sialidase, change in fluorescence intensity over time; assay type: biochemical; details: for increase in the fluorescence in reaction with the sialidase: 1 μM probe, 0.01 U enzyme, 100 mM NaOAc 2 mM CaCl2 buffer pH 7.4, 37° C.; for change in the fluorescence in the absence of enzyme: identical reaction without enzyme, pH 7.4, 37° C.
Procedure: as §1
The fluorescence intensity of HMRef-Neu5Ac obtained in Synthesis Example 1 was changed through an enzymatic reaction with a neuraminidase (Arthrobacter ureafaciens), and the change in the fluorescence intensity of HMRef-Neu5Ac over time was examined. HMRef-Neu5Ac was dissolved in a 100 mM NaOAc 2 mM CaCl2 buffer (pH 7.4) to prepare a 1 μM solution, and 0.01 U of the enzyme was added 60 seconds after the start of measurement. At the time of measurement, the temperature was 37° C., and the concentration of an enzyme inhibitor (DANA) was 100 μM.
In the same manner as in the evaluation of HMRef-Neu5Ac, the reaction with a sialidase and the absorption spectrum at each pH were acquired for HMRef-S-Neu5Ac (FIGS. 3a and 3b).

[4] = stability of the probe at various pH values (fluorescence intensity and absorption spectra over time); assay type: physicochemical; details: for stability: change in fluorescence intensity over time at various pH values: 0.2 M sodium phosphate buffer, 2 hours, ex/em 485 nm/535 nm; for change of absorption spectra 1.5 hours after dissolution: 0.2 M sodium phosphate buffers of various pH, immediately after vs 1.5 hours after dissolution
Procedure: HMRef-Neu5Ac was dissolved in 0.2 M sodium phosphate buffers having various pH values, and the absorption spectra were measured immediately after and 1.5 hours after the dissolution.
The stability of HMRef-Neu5Ac and that of HMRef-S-Neu5Ac were directly compared by recording the changes in fluorescence intensity over time at a pH within a range. The initial fluorescence intensity values of both the probes depend on the pH value according to the pKcycl values of the probes. That is, the lower the pH is, the larger the initial fluorescence intensity value is.
The measurement was performed in 0.2 M sodium phosphate buffer at 37° C. and measurements were taken every 5 minutes. In each measurement, excitation/emission wavelengths of 485 nm/535 nm were used.

[5] = pH 2, 0.2M sodium phosphate buffer
[6] = pH 7.4, 0.2M sodium phosphate buffer

Row | Compound | Km [1] [µM] | Vmax [1] [nM/s] | kcat [1] [s⁻¹] | pKa ([2]; 0.2 M sodium phosphate buffer) | Absorption max. [2, 5] [nm] | Emission max. [2, 5] [nm] | fluorescence quantum yield (absolute fluorescence quantum efficiency) [2, 5] | Absorption max. [2, 6] [nm] | Emission max. [2, 6] [nm] | fluorescence quantum yield (absolute fluorescence quantum efficiency) [2, 6] | pKcycl [2] | kcat/Km relative to that of 4-MUNANA [1] [fold] | increase in the fluorescence in reaction with the sialidase [3] | change in the fluorescence in the absence of enzyme [3] | stability: change in fluorescence intensity over time at various pH values ([4]; 37° C.) | change of absorption spectra 1.5 hours after dissolution [4] | time to complete hydrolysis ([4]; pH 2 and pH 4, 0.2 M sodium phosphate buffer, 37° C.)
1 | CC(=O)N[C@@H]1[C@@H](O)C[C@](Oc2ccc3c(C)cc(=O)oc3c2)(C(=O)O)O[C@H]1C(O)[C@H](O)CO (stereo partly drawn) [4-MUNANA, 2′-(4-methylumbelliferyl)-α-D-N-acetylneuraminic acid, reference compound] | 37 | 1.73 | 2.6 |  |  |  |  |  |  |  |  |  |  |  |  |  | 
2 | O=c1ccc2c(-c3ccccc3CO)c3ccc(NCC(F)(F)F)cc3oc-2c1 [HMRef, reference compound] |  |  |  | 4.4 | 479 | 515 | 0.716 | 498 | 518 | 0.777 | 10.2 |  |  |  |  |  | 
3 | CC(=O)N[C@H]1[C@H]([C@H](O)[C@H](O)CO)O[C@@](Oc2ccc3c(c2)Oc2cc(NCC(F)(F)F)ccc2C32OCc3ccccc32)(C(=O)O)C[C@@H]1O (some centres unmarked) [HMRef-Neu5Ac] | 19 | 13.5 | 20.6 |  | 484 | 522 | 0.650 |  |  | 0.323 | 4.8 | ~16 | up to 40 fold | 3 fold | clear instability at all the pH values | greatly changed in shape | about 40 minutes
4 | CC(=O)N[C@H]1[C@H]([C@H](O)[C@H](O)CO)O[C@@](Oc2ccc(COc3ccc4c(c3)Oc3cc(NCC(F)(F)F)ccc3C43OCc4ccccc43)cc2)(C(=O)O)C[C@@H]1O (some centres unmarked) [HMRef-S-Neu5Ac] | 11 | 7.03 | 10.7 |  | 484 | 522 | 0.537 |  |  | 0.271 | 5.3 | ~13 | 130 fold | remained at a constant low level | changed little over the time | changed little | 
